Experimental data as given in patent US5883240A, “Genetic sequences encoding glucocorticoid dehydrogenases and uses therefor” (Baker Medical Research Institute, priority 1995, dated 1999).

Tests used:
11 βHSD2 [1] = molecular target: T1, 11 βHSD2 (Homo sapiens, UniProt P80365); test: Cofactor specificity of glucocorticoid metabolism in homogenates of pHSD2 transfected CHOP cells; type: biochemical; settings: 1 mM NAD+ or 1 mM NADP+, 1-2 nM tritiated plus 10 nM unlabelled substrate, 37° C., 40 minutes, TLC
T1 sequence (P80365 1-405 V148L): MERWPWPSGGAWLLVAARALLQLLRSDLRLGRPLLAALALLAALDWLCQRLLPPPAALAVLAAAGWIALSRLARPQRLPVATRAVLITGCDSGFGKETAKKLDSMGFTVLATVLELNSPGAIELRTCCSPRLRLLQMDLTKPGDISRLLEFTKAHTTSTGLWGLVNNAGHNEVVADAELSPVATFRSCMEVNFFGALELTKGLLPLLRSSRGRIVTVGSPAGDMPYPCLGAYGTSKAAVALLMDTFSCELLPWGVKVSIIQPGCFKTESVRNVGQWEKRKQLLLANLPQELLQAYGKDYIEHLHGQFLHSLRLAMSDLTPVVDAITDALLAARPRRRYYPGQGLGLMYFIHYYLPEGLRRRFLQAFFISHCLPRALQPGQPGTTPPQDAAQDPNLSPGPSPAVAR
Procedure: CHOP cells were transfected with plasmid pHSD2, which contains an insert encoding 11 βHSD2. After 60 hours incubation in 85 mm plates, cellular homogenates were prepared and assayed for their ability to metabolise glucocorticoid substrates in the presence of 1 mM NAD+, or 1 mM NADP+. Confluent cells were homogenised in 1 ml of homogenisation buffer (0.25M sucrose, 10 MM phosphate, pH 7). Reaction mixtures (500 μl) contained either 40 μl of homogenate plus [^3 H]corticosterone, or 80 μl of homogenate plus [^3 H]cortisol, or 120 μl of homogenate plus [^3 H]dexamethasone, in homogenisation buffer. All reactions contained 1-2 nM tritiated glucocorticoid substrate plus 10 nM unlabelled glucocorticoid substrate. Reaction mixtures were incubated at 37° C. for 40 minutes and steroid metabolites were assayed by thin layer chromatography.

11 βHSD2 [2] = molecular target: T1, 11 βHSD2; type: biochemical; settings: substrate Km, double reciprocal plot, homogenates of pHSD2 transfected CHOP cells, 37° C., mean±SD, n=3
Excerpt: The efficiency of the dehydrogenase may be further increased by mechanisms such as intracellular compartmentalisation of the enzyme.

11 βHSD2 [3] = molecular target: T1, 11 βHSD2; test: Directionality and end-product inhibition in intact pHSD2 transfected CHOP cells; type: cell-based; settings: monolayer cultures, 1.5 hours at 37° C., labelled substrate, TLC of culture medium
Procedure: To determine directionality and extent of end production inhibition of the enzyme encoded by pHSD2, monolayer cultures of transfected CHOP cells were incubated for 1.5 hours at 37° C. with 1-2 nM labelled substrates plus 10 nM corresponding unlabelled 11-dehydro metabolite (FIG. 2b). The culture medium was then removed, extracted and assayed by TLC for the presence of the 11-dehydro metabolite.

| SMILES | glucocorticoid metabolism to 11-dehydro metabolite, cofactor dependence (11 βHSD2 [1]) | Km (11 βHSD2 [2]) | metabolite formation by intact transfected CHOP cells (11 βHSD2 [3]) |
| --- | --- | --- | --- |
| C[C@@H]1C[C@H]2[C@@H]3CCC4=CC(=O)C=C[C@]4(C)[C@@]3(F)[C@@H](O)C[C@]2(C)[C@@]1(O)C(=O)CO [dexamethasone] | only showed significant glucocorticoid metabolism when NAD+, but not NADP+, was included as a cofactor | – | – |
| C[C@]12CCC(=O)C=C1CC[C@@H]1[C@@H]2[C@@H](O)C[C@@]2(C)[C@H]1CC[C@]2(O)C(=O)CO [cortisol] | only showed significant glucocorticoid metabolism when NAD+, but not NADP+, was included as a cofactor | 0.047 ± 0.0018 µM | converted |
| C[C@]12CCC(=O)C=C1CC[C@@H]1[C@@H]2C(=O)C[C@@]2(C)[C@H]1CC[C@]2(O)C(=O)CO [cortisone] | – | – | no metabolite formed |
| C[C@]12CC(=O)[C@H]3[C@@H](CCC4=CC(=O)CC[C@@]43C)[C@@H]1CC[C@@H]2C(=O)CO [11-dehydro corticosterone] | – | – | no metabolite formed |
| C[C@]12C[C@H](O)[C@H]3[C@@H](CCC4=CC(=O)CC[C@@]43C)[C@@H]1CC[C@@H]2C(=O)CO [corticosterone] | only showed significant glucocorticoid metabolism when NAD+, but not NADP+, was included as a cofactor | 0.0044 ± 0.0012 µM | converted |
